Here are results for 3 molecules from US9757408B2 (Hayashibara Co., Ltd., priority 2010, dated 2017).

Each structure is given as a SMILES string. Marks after values point to notes of the source that are not given here.

One assay concerns KK-Ay mice. The experiment in a line: KK-Ay mice kidney inflammation: body weight, kidney ratio, blood glucose, HbA1c, renal glomerulus consolidation (Experiment 14). It is filed as in vivo. The note with it: 10 weeks; for Percentage of subject with renal glomerulus solidification (++): (++) = at least 50% consolidation; for Blood glucose level: fasted 16 hours. An excerpt:
Fifty KK-Ay mice, 5-week-old, male, commercialized by Japan Crea Co., Tokyo, Japan, were preliminary bred for one week on CE-2 feed commercialized by Japan Crea Co., Tokyo, Japan, measured for body weight and blood glucose level in blood samples collected from their tail veins, and randomly grouped into five groups, ten heads each, after balancing each measured value. One of the five groups was made into a control group and the mice of the group were allowed to take water freely and bred for 10 weeks (Experiment group 1). […] Throughout the periods of preliminary breeding and testing, the mice were bred while freely allowing them to take CE-2 feed at 22±2° C. under a light-dark cycle of 12 hours (lighting: from 7:00 to 19:00). At the termination of the test, the mice were evaluated based on their body weight, weight ratio of kidney, blood glucose level, hemoglobin A1c (HbA1c), and pathological findings of renal disorder by autopsy, and the percentage of mice with at least 50% consolidation (++) of renal glomerulus against the total glomus is shown in Table 15. The weight ratio of kidney was determined by dividing the weight of kidney by the body weight. The blood glucose level, HbA1c, and denatured score of renal glomerulus were determined by the following method.
At the termination of the test, the mice were fasted for 16 hours prior to autopsy and collected blood from their postcava for measurement of fasting glucose level. The blood glucose level was determined by “GLUCOSE CII-TEST WAKO”, a product name of a commercialized reagent for blood glucose level commercialized by Wako Pure Chemical Industries Ltd., Tokyo, Japan.
At the termination of the test, the mice were fasted for 16 hours before autopsy and collected blood from their postcava for measurement of interdigestive HbA1c level. The measurement was asked FALCO biosystems Ltd., Kyoto, Japan, a privately-owned clinical inspection institute.
At the autopsy, each mouse was collected his kidney which was then fixed with neutral buffered formalin, prepared into a pathologic tissue section in usual manner, and stained with hematoxylin-eosin staining (H-E staining) and PAS staining. For the stained pathologic tissue section of each mouse, they were compared with that of the control and the pathological findings by microscopic observation were judged based on the following criteria and scored for an index of the denaturation of renal disorder.
The degree of renal disorder was judged based on the degree of consolidation of renal glomerulus: The degree was judged based on the four grades; (++), meaning that at least 50% consolidation of renal glomerulus is observed against the total glomus; (+), meaning that at least 25% but below 50% consolidation of renal glomerulus is observed against the total glomus; (±), meaning that less than 25% consolidation of renal glomerulus is observed against the total glomus; and (−), meaning that no consolidation of renal glomerulus is observed against the total glomus. The pathological findings of kidney was judged based on an evaluation criterion for pathologic tissue (see, for example, the lines 12 to 21 at page 862 of “American Journal of Pathology”, Vol. 160, No. 3, pp. 861-867, 2002, by Andrea Hartner et al.).

Assay [1] deals with IL-4 production of spleen cells. Nature of the assay: IL-4 production of spleen cells stimulated with anti-CD3 antibody, from gel-treated mice (Experiment 16). It is filed as in vivo, NC/Nga mice. The note with it: for production level of IL-4 of spleen cells stimulated with the anti-CD3 antibody: compared to mice applied with gel prepared by adding refined water (Experiment group 1); for Content of IL-4: supernatant of spleen cells stimulated with anti-CD3 antibody; for Content of IL-4 / Ratio of IL-4/IFN-γ: picryl chloride-sensitized mice applied with gel; for Ratio of IL-4/IFN-γ: spleen cells stimulated with anti-CD3 antibody. Here is the method: On Friday of the 6th week of the induction (46th day after initiating the application), all the mice were sacrificed, followed by isolating their spleens and collecting spleen cells in usual manner. […] To each well 2 μg/mL of “Purified Mouse CD3ε Monoclonal Antibody”, a product name of an anti-CD3 antibody, commercialized by Cosmo Bio Co., Ltd., Tokyo, Japan, was added, and the cells were incubated at 37° C. for three days in a 5% v/v CO2 incubator, followed by assaying the levels of cytokines in each supernatant thereof.
The results are in Table 19 in parallel.

The subject of the next assay is NHEK cells. The experiment in a line: Cytotoxicity (released LDH) of NHEK cells irradiated with ultraviolet B (Experiment 17). The assay is classed as cell-based, human. Conditions: for LDH Activity: NHEK cells, stimulation by ultraviolet rays.
Assay [2] concerns TNF-α production from NHEK cells. Nature of the assay: TNF-α production from NHEK cells irradiated with ultraviolet B (Experiment 17). The assay is classed as cell-based, human. The note with it: for TNF-α: NHEK cells, stimulation by ultraviolet rays; for production of TNF-α from NHEK cells induced by ultraviolet rays: UVB 40 mJ/cm^2, supernatant at six hours. Here is the method: (§1) “CELLMATRIX TYPE IV”, a product name of collagen for tissue culture commercialized by Nitta Gelatin Inc., Osaka, Japan, which had been diluted with PBS(K-) by 10 times, was previously placed in “FALCON 35-3001”, a product name of 35 mm petri dish commercialized by Becton Dickinson and Company, NJ, USA, in an amount of 1 mL/plate, and then allowed to stand at ambient temperature for 10 min, followed by removing an excessive amount of CELLMATRIX, drying the petri dish in air, and washing it thrice with PBS(K-). […] The cells were cultured at 37° C. in a 5% v/v CO2 incubator. On the 2nd and 4th days after the cell inoculation, the medium was replaced with EpiLife medium free of EDGS (1 mL/plate). On the 5th day after the cell inoculation, the supernatant was removed, and the petri dish was washed twice by adding 1 mL/petri dish of Hanks' balanced salt solution (called “HBSS (−) buffer”, hereinafter). Further, 2 mL/petri dish of HBSS (−) buffer was added to the petri dish which was then placed in the position 15 cm apart from an ultraviolet ray light source and irradiated with 40 mJ/cm^2 of ultraviolet B radiation. […] As an ultraviolet ray light source, “NS-8F”, a light source for actual use commercialized by Sanwa Medical Co., Ltd., Okayama, Japan, equipped with an ultraviolet B radiation lamp was used, and the radiation dose was measured on “UVR-305/365D (II)”, an ultraviolet ray meter commercialized by Topcon Corporation, Tokyo, Japan. TNF-α was assayed by the same method as in Experiment 2. The remaining other cytokines were assayed with an IL-1α assay kit, commercialized by R & D Systems Inc., MN, USA, and an IL-8 assay kit commercialized by BioLegend, CA, USA.

In assay [3] the test system is IL-1α production from NHEK cells. The experiment in a line: IL-1α production from NHEK cells irradiated with ultraviolet B (Experiment 17). The assay is classed as cell-based, human. Conditions: for IL-1α: NHEK cells, stimulation by ultraviolet rays; for production of IL-1α from NHEK cells augmented by ultraviolet rays: UVB 40 mJ/cm^2, supernatant at six hours. As to the method: as §1

The subject of assay [4] is IL-12 production from mouse intraperitoneal macrophages. Nature of the assay: IC50 for IL-12 production from mouse macrophages, LPS + IFN-γ (Experiment 19). The assay is classed as cell-based. The note with it: for IC50: Mus musculus, Macrophage, 20 h, read-out: IC50 Concentration IL-12. The source says: (§2) After completion of the culture, the supernatant in each well was collected and assayed for cytokines and prostaglandin E2 (called “PGE2”, hereinafter) with ELISA.

For assay [5], the system named is PGE2 production from mouse intraperitoneal macrophages. The experiment in a line: IC50 for PGE2 production from mouse macrophages, LPS + IFN-γ (Experiment 19). The note with it: for IC50: Mus musculus, Macrophage, 20 h, read-out: IC50 Concentration PGE2. It is filed as cell-based.
Text: as §2

The mark [6] stands for this setting: mouse intraperitoneal macrophages stimulated with LPS and IFN-γ.

As to `Nc1ncnc2c1ncn2[C@@H]1O[C@H](CO)[C@@H](O)[C@H]1O` [AN, adenosine], in the assay on KK-Ay mice (94 mg/kg body weight/day), the HbA1c value came out at 6.72%. The “Percentage of subject with renal glomerulus solidification (++)” value (“Percentage of subject” for short) in the assay on KK-Ay mice (94 mg/kg body weight/day) is 100%. Also, the Blood glucose level in the assay with KK-Ay mice (94 mg/kg body weight/day) worked out at 342 mg/dL. The “production level of IL-4 of spleen cells stimulated with the anti-CD3 antibody” value (from here on “production level”) in assay [1] is “showed no difference”. Also, in assay [1], the “Content of IL-4” value was determined as 9.8 ng/mL. The results for the “LDH Activity” value with NHEK cells (1 μM), in the assay on NHEK cells (5 μM) and in the assay with NHEK cells (10 μM) were 0.35 absorbance, 0.36 absorbance and 0.35 absorbance, respectively. The TNF-α in assay [2] (1 μM) came out at 144 pg/mL; in assay [2] (5 μM), 138 pg/mL; in assay [2] (10 μM) it was 138 pg/mL. In addition, the “production of TNF-α from NHEK cells induced by ultraviolet rays” value (“production of TNF-α” for short) in assay [2] is “did not influence”. The IL-1α in assay [3] (1 μM) is 243 pg/mL; in assay [3] (5 μM), 244 pg/mL; in assay [3] (10 μM), 239 pg/mL. Also, the “production of IL-1α from NHEK cells augmented by ultraviolet rays” value (“production of IL-1α” below) in assay [3] is reported as “did not influence”. The values for the IC50 in assay [4] and in assay [5] were 14 µM and over 200 µM, respectively.
As for `Nc1c2ncn([C@@H]3O[C@H](CO)[C@@H](O)[C@H]3O)c2nc[n+]1[O-]` [ANO, adenosine N1-oxide], the HbA1c value with KK-Ay mice (30 mg/kg body weight/day) is recorded as 6.79%; in the assay on KK-Ay mice (100 mg/kg body weight/day, 100 mg/kg/day) it was 5.40* %; with KK-Ay mice (100 mg/kg body weight/day, listed as adenosine N1-oxide, 100 mg/kg/day), 5.40%. In addition, the “Percentage of subject” value in the assay with KK-Ay mice (30 mg/kg body weight/day) amounted to 50%; in the assay on KK-Ay mice (100 mg/kg body weight/day), 30%. For the same molecule, the Blood glucose level was 304 mg/dL with KK-Ay mice (30 mg/kg body weight/day) and 305 mg/dL in the assay with KK-Ay mice (100 mg/kg body weight/day). Further, the “production level” value in assay [1] was “significantly lower”. Besides, the “production ratio of IL-4/IFN-γ of spleen cells stimulated with the anti-CD3 antibody” value in assay [1] (spleen cells of gel-treated mice) is on record as “close to that of the mice of the normal group”. For the same molecule, the “Ratio of IL-4/IFN-γ” value in assay [1] was 0.32. Moreover, the “Content of IL-4” value in assay [1] was 2.8* ng/mL. Besides, the “LDH Activity” value in the assay on NHEK cells (1 μM) was 0.32 absorbance; in the assay on NHEK cells (5 μM), 0.23 absorbance; in the assay with NHEK cells (10 μM), 0.14 absorbance. For the same molecule, the “LDH released from NHEK cells by the stimulation of ultraviolet rays” value with NHEK cells (UVB 40 mJ/cm^2, supernatant at four hours) is on record as “inhibited LDH released”. The TNF-α in assay [2] (1 μM) stood at 119 pg/mL; in assay [2] (5 μM), 76 pg/mL; in assay [2] (10 μM), 76 pg/mL. Also, the “production of TNF-α” value in assay [2] was “inhibited”. The IL-1α is 203 pg/mL in assay [3] (1 μM), 173 pg/mL in assay [3] (5 μM) and 140 pg/mL in assay [3] (10 μM). The “production of IL-1α” value in assay [3] is given as “inhibited”. For the same molecule, the IC50 in assay [4] was determined as 1.4 µM; in assay [5], 1.2 µM. In addition, the “inhibitory action on the production of IL-12 (in words)” value in assay [4] (setting [6]) was “showed an inhibitory action”. Moreover, the “inhibitory action on the production of PGE2 (in words)” value in assay [5] (setting [6]) is recorded as “showed an inhibitory action”.
Take `OC[C@H]1O[C@@H](n2cnc3c(O)ncnc32)[C@H](O)[C@@H]1O` [IN, inosine]: the HbA1c value in the assay on KK-Ay mice (94 mg/kg body weight/day) was found to be 6.55%. The “Percentage of subject” value in the assay with KK-Ay mice (94 mg/kg body weight/day) is 80%. Further, the Blood glucose level with KK-Ay mice (94 mg/kg body weight/day) stood at 340 mg/dL. Besides, the “production level” value in assay [1] was “showed no difference”. Besides, the “Ratio of IL-4/IFN-γ” value in assay [1] is reported as 0.70. For the same molecule, the “Content of IL-4” value in assay [1] was determined as 9.3 ng/mL. For the same molecule, the “LDH Activity” value with NHEK cells (1 μM) came out at 0.34 absorbance; in the assay with NHEK cells (5 μM), 0.34 absorbance; with NHEK cells (10 μM), 0.32 absorbance. Further, the TNF-α is on record as 141 pg/mL in assay [2] (1 μM), 142 pg/mL in assay [2] (5 μM) and 128 pg/mL in assay [2] (10 μM). Further, the “production of TNF-α” value in assay [2] is “did not influence”. Also, the IL-1α turned out to be 246 pg/mL in assay [3] (1 μM), 243 pg/mL in assay [3] (5 μM) and 228 pg/mL in assay [3] (10 μM). In assay [3], the “production of IL-1α” value was “did not influence”. Further, the IC50 in assay [4] and in assay [5] was over 200 µM each time.
